Laboratory results from patent US6979732B1, “Polynucleotide compositions encoding S-adenosyl-L-methionine:phosphoethanolamine N-methyltransferase and methods for modulating lipid biosynthesis in plants” (University of Florida, priority 2000, dated 2005).

Legend:
PEAMT [1] = biological target: T1, PEAMT (Spinacia oleracea, UniProt Q9M571); test: PEAMT activity assay with extracts of S. pombe Bx22 cells expressing recombinant wild type PEAMT; assay type: biochemical; conditions: for inhibition of PEAMT activity (in words): metabolite at 2 mM
T1 construct: The PEAMT cDNA comprises a 494-residue open reading frame; made in house; host or cells: Schizosaccharomyces pombe Bx22 (leu1 cho2-) carrying pREP3-PEAMT; desalted crude extract, not purified
T1 sequence (Q9M571 1-494): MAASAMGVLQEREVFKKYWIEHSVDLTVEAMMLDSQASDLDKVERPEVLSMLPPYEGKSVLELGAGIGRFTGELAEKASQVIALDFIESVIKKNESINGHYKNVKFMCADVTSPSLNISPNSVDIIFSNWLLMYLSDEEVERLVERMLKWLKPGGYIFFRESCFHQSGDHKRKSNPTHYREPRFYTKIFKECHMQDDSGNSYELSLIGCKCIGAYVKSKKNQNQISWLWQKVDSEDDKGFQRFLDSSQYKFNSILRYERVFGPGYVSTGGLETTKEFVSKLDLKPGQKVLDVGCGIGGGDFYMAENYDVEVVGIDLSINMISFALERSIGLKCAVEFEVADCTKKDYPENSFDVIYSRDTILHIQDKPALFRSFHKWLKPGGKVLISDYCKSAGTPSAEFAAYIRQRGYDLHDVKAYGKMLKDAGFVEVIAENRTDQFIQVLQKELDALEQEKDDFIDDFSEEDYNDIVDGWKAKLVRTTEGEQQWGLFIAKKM
Method: Cells were grosn to an OD600 of ≈1 in 50 ml of medium at 30° C., shaking at 250 rpm. […] Subsequent operations were at 0-4° C. Cells were harvested by centrifugation (5000×g, 10 min), washed twice with water and once with 100 mM HEPES-KOH, pH 7.8, resuspended in 0.5 ml of lysis buffer (100 mM HEPES-KOH, pH 7.8, 2 mM Na2EDTA, 5 mM dithiothreitol, 10% glycerol) and transferred to 2-ml microfuge tubes containing ≈1.5 g of acid-washed glass beads (425-600 μm). Cells were broken by vortexing at maximum speed for 2 min. The brei was centrifuged (16,000×g, 2 min), the supernatant was removed and the beads were washed with 3×1 ml of lysis buffer. The combined supernatants were clarified by centrifugation (16,000×g, 15 min) and desalted on a PD-10 column (Amersham Pharmacia Biotech, Piscataway, N.J.) equilibrated with storage buffer (10 mM HEPES-KOH, pH 7.8, 2 mM Na2EDTA, 5 mM dithiotreitol, 10% glycerol). The extract was aliquotted, frozen in liquid N2 and stored at […]. Spinach leaf extracts were prepared as described (Summers and […], 1993). Protein was determined using the Bio-Rad dye reagent (Hercules, Calif.). Native molecular mass was estimated using a Waters 626 HPLC system (Milford, Mass.) equipped with a Superdex 200 HR 10/30 column (Amersham Pharmacia Biotech) as described ([…] al., 1995). PEAMT activity was measured by a modification of published methods (Datko and Mudd, 1988b; Summers and […], 1993), under conditions in which product formation was proportional to enzyme concentration and time. […] Reactions were stopped by adding 1 ml of ice-cold water; each was applied to a 1-ml AG-50 (HR^+) column held at 4° C. and the assay tube was rinsed with 1 ml of water, which was also applied to the column. Products were eluted with 10 ml of 0.1 N HCl, and 2 ml of the eluate was mixed with 3 ml of Ready Gel scintillation fluid (Beckman, Palo Alto, Calif.) and counted. For assay blanks, enzyme was omitted during incubation and added just before the ion exchange step.

PEAMT [2] = biological target: T1, PEAMT; test: AdoMet:EA N-methyltransferase activity assay of the complemented strain; assay type: biochemical; conditions: complemented strain extract
Method: (§1) AdoMet:EA N-methyltransferase activity was assayed as above except that reactions contained 200 nmol EA and 160 nmol (40 nCi) of [methyl-^14C]AdoMet. The [methyl-^14C]AdoMet was removed by treating with activated charcoal and centrifuging (Cook and Wagner, 1984), and ^14C-incorporation into freebase products was measured by counting a sample of the supernatant. […] For assay blanks, EA was omitted. AdoMet:Ptd-EA N-methyltransferase activity was measured essentially as described (Datko and Mudd, 1988b). Assays (final volume 100 μl) contained 9 μl 10X assay buffer, 0.8 nmol (47 nCi) [methyl-^14C]AdoMet, 10 μl of a Ptd-EA emulsion in 1× assay buffer (10 mg ml^−1, sonicated for 3×30 sec), and enzyme extract; incubation was for 30 min at 30° C. The phospholipid fraction was isolated for ^14C quantification as described (Datko and Mudd, 1988b) except that the methanol:chloroform:water proportions were 12:5:1 (vol./vol./vol.). Data were corrected for the ^14C incorporation in control assays containing extract from Bx22 cells.

PEAMT [3] = biological target: T1, PEAMT; test: AdoMet:Ptd-EA N-methyltransferase activity assay of the complemented strain; assay type: biochemical; conditions: complemented strain extract
Method: as §1

ΔPEAMT = biological target: T2, ΔPEAMT (Spinacia oleracea, UniProt Q9M571); test: PEAMT activity assay with extracts of S. pombe Bx22 cells expressing truncated ΔPEAMT; assay type: biochemical
T2 construct: made in house; host or cells: Schizosaccharomyces pombe Bx22 (leu1 cho2-) carrying pREP3-ΔPEAMT; desalted crude extract, not purified
T2 sequence (Q9M571 with tags, fused parts or gaps): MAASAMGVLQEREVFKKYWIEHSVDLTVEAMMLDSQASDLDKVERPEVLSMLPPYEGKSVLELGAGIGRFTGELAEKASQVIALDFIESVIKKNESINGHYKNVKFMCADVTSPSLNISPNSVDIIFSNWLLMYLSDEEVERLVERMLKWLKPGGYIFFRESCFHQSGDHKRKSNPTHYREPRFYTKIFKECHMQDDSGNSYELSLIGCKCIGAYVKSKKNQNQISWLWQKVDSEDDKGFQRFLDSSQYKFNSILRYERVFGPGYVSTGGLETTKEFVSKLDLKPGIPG
Method: The plasmid encoding PEAMT, designated pREP3-PEAMT, was digested with BamHI and end-polished with T4 DNA polymerase. The 3'-sequence of PEAMT was removed by digestion with MscI; the remaining sequence plus vector was gel-purified and religated to give ΔPEAMT. In ΔPEAMT the native coding sequence terminates at […], and the pREP3 polylinker adds the sequence […] to the carboxyl-terminus. Cells were grosn to an OD600 of ≈1 in 50 ml of medium at 30° C., shaking at 250 rpm. […] Subsequent operations were at 0-4° C. Cells were harvested by centrifugation (5000×g, 10 min), washed twice with water and once with 100 mM HEPES-KOH, pH 7.8, resuspended in 0.5 ml of lysis buffer (100 mM HEPES-KOH, pH 7.8, 2 mM Na2EDTA, 5 mM dithiothreitol, 10% glycerol) and transferred to 2-ml microfuge tubes containing ≈1.5 g of acid-washed glass beads (425-600 μm). Cells were broken by vortexing at maximum speed for 2 min. The brei was centrifuged (16,000×g, 2 min), the supernatant was removed and the beads were washed with 3×1 ml of lysis buffer. The combined supernatants were clarified by centrifugation (16,000×g, 15 min) and desalted on a PD-10 column (Amersham Pharmacia Biotech, Piscataway, N.J.) equilibrated with storage buffer (10 mM HEPES-KOH, pH 7.8, 2 mM Na2EDTA, 5 mM dithiotreitol, 10% glycerol). The extract was aliquotted, frozen in liquid N2 and stored at […]. Spinach leaf extracts were prepared as described (Summers and […], 1993). Protein was determined using the Bio-Rad dye reagent (Hercules, Calif.). Native molecular mass was estimated using a Waters 626 HPLC system (Milford, Mass.) equipped with a Superdex 200 HR 10/30 column (Amersham Pharmacia Biotech) as described ([…] al., 1995). PEAMT activity was measured by a modification of published methods (Datko and Mudd, 1988b; Summers and […], 1993), under conditions in which product formation was proportional to enzyme concentration and time. […] Products were eluted with 10 ml of 0.1 N HCl, and 2 ml of the eluate was mixed with 3 ml of Ready Gel scintillation fluid (Beckman, Palo Alto, Calif.) and counted. […]

[4] = substrate: NCCOP(=O)(O)O; test: PEAMT activity assay with extracts of S. pombe Bx22 cells expressing recombinant wild type PEAMT; assay type: biochemical, Spinacia oleracea; conditions: other: recombinant PEAMT, substrate
Method: Cells were grosn to an OD600 of ≈1 in 50 ml of medium at 30° C., shaking at 250 rpm. […] Subsequent operations were at 0-4° C. Cells were harvested by centrifugation (5000×g, 10 min), washed twice with water and once with 100 mM HEPES-KOH, pH 7.8, resuspended in 0.5 ml of lysis buffer (100 mM HEPES-KOH, pH 7.8, 2 mM Na2EDTA, 5 mM dithiothreitol, 10% glycerol) and transferred to 2-ml microfuge tubes containing ≈1.5 g of acid-washed glass beads (425-600 μm). Cells were broken by vortexing at maximum speed for 2 min. The brei was centrifuged (16,000×g, 2 min), the supernatant was removed and the beads were washed with 3×1 ml of lysis buffer. The combined supernatants were clarified by centrifugation (16,000×g, 15 min) and desalted on a PD-10 column (Amersham Pharmacia Biotech, Piscataway, N.J.) equilibrated with storage buffer (10 mM HEPES-KOH, pH 7.8, 2 mM Na2EDTA, 5 mM dithiotreitol, 10% glycerol). […] Protein was determined using the Bio-Rad dye reagent (Hercules, Calif.). […] PEAMT activity was measured by a modification of published methods (Datko and Mudd, 1988b; Summers and […], 1993), under conditions in which product formation was proportional to enzyme concentration and time. […] Products were eluted with 10 ml of 0.1 N HCl, and 2 ml of the eluate was mixed with 3 ml of Ready Gel scintillation fluid (Beckman, Palo Alto, Calif.) and counted. […]

[5] = 3-hr incubation, small quantity of P-EA, 5-fold excess of [methyl-14C]AdoMet

C[S+](CC[C@H](N)C(=O)[O-])C[C@H]1O[C@@H](n2cnc3c(N)ncnc32)[C@H](O)[C@@H]1O (stereo partly drawn) [AdoMet, S-adenosyl-L-methionine]
Km (PEAMT [1]; recombinant PEAMT, substrate): 140 µM

NCCO [EA, ethanolamine]
activity with EA as substrate (PEAMT [2]): < 1 pkat mg^−1 protein

C[N+](C)(C)CC(=O)[O-] [GlyBet, glycine betaine]
inhibition of PEAMT activity (in words) (PEAMT [1]): not inhibitory

CNCCO [MME]
inhibition of PEAMT activity (in words) (PEAMT [1]): not inhibitory

S-adenosyl-L-methionine:phosphoethanolamine N-methyltransferase [PEAMT]
PEAMT activity in the absence of P-Cho (PEAMT [1]; 25 μg protein, 10 min, 50 nmol P-EA, 170 nmol AdoMet): 737±18 pkat mg^−1 protein
reaction product (PEAMT [1]; [5]): almost solely [^14C]P-Cho
specific activity of PEAMT in extracts of complemented cells relative to spinach leaves (PEAMT [1]; FIG. 2A): up to 80 fold
pH optimum of PEAMT activity (PEAMT [1]; recombinant PEAMT): 8.1-8.5

CN(C)CCO [DME]
inhibition of PEAMT activity (in words) (PEAMT [1]): not inhibitory

phosphatidylethanolamine [Ptd-EA]
activity with Ptd-EA as substrate (PEAMT [3]): < 1 pkat mg^−1 protein

C[N+](C)(C)CCOP(=O)([O-])O [P-Cho, phosphocholine]
reduction of PEAMT activity (PEAMT [1]; 2 mM P-Cho, 50 nmol P-EA, 170 nmol [methyl-14C]AdoMet, 10 min): 80%
inhibition at 10000 µM (PEAMT [1]; 10 mM P-Cho, saturating P-EA concentration, read-out: reduction (inhibition) of PEAMT activity): 95%
sensitivity of ΔPEAMT to P-Cho compared with the wild-type enzyme (ΔPEAMT; 10 mM P-Cho, P=0.05): retaining twice as much of its initial activity

B1: PEAMT (Spinacia oleracea) (protein)
chain: MAASAMGVLQEREVFKKYWIEHSVDLTVEAMMLDSQASDLDKVERPEVLSMLPPYEGKSVLELGAGIGRFTGELAEKASQVIALDFIESVIKKNESINGHYKNVKFMCADVTSPSLNISPNSVDIIFSNWLLMYLSDEEVERLVERMLKWLKPGGYIFFRESCFHQSGDHKRKSNPTHYREPRFYTKIFKECHMQDDSGNSYELSLIGCKCIGAYVKSKKNQNQISWLWQKVDSEDDKGFQRFLDSSQYKFNSILRYERVFGPGYVSTGGLETTKEFVSKLDLKPGQKVLDVGCGIGGGDFYMAENYDVEVVGIDLSINMISFALERSIGLKCAVEFEVADCTKKDYPENSFDVIYSRDTILHIQDKPALFRSFHKWLKPGGKVLISDYCKSAGTPSAEFAAYIRQRGYDLHDVKAYGKMLKDAGFVEVIAENRTDQFIQVLQKELDALEQEKDDFIDDFSEEDYNDIVDGWKAKLVRTTEGEQQWGLFIAKKM
notes: The PEAMT cDNA comprises a 494-residue open reading frame; made in house; host or cells: Schizosaccharomyces pombe Bx22 (leu1 cho2-) carrying pREP3-PEAMT; desalted crude extract, not purified
Km [4]: 96 µM

B2: ΔPEAMT: truncated spinach PEAMT; native coding sequence terminates at Gly-286, plus Ile Pro Gly; SEQ ID NO:4 (protein, listed as Spinacia oleracea)
chain: MAASAMGVLQEREVFKKYWIEHSVDLTVEAMMLDSQASDLDKVERPEVLSMLPPYEGKSVLELGAGIGRFTGELAEKASQVIALDFIESVIKKNESINGHYKNVKFMCADVTSPSLNISPNSVDIIFSNWLLMYLSDEEVERLVERMLKWLKPGGYIFFRESCFHQSGDHKRKSNPTHYREPRFYTKIFKECHMQDDSGNSYELSLIGCKCIGAYVKSKKNQNQISWLWQKVDSEDDKGFQRFLDSSQYKFNSILRYERVFGPGYVSTGGLETTKEFVSKLDLKPGIPG
PEAMT activity in the absence of P-Cho (ΔPEAMT; 50 μg protein, 10 min, 50 nmol P-EA, 170 nmol AdoMet): 200±10 pkat mg^−1 protein
reaction product (ΔPEAMT; [5]): only [^14C]P-MME
